In ChEMBL document CHEMBL3045802, “Synthesis and in vitro antitumor activity of new quinoline, pyrimido[4,5-b]quinoline, [1,2,3]triazino[4,5-b]quinoline, and [1,2,4]triazolo[2,3:3,4]pyrimido[6,5-b]quinoline analogs” (2013):

How the values were obtained:
Assay type in all cases: functional
ACHN = assay: Cytotoxicity against Homo sapiens (human) ACHN cells assessed as growth inhibition at 10 uM after 48 hr by coulter counter analysis; conditions: read-out: GI
HL-60(TB) = assay: Cytotoxicity against Homo sapiens (human) HL-60(TB) cells assessed as growth inhibition at 10 uM after 48 hr by coulter counter analysis; conditions: HL-60, 48 h, read-out: GI
SF-539 = assay: Cytotoxicity against Homo sapiens (human) SF539 cells assessed as growth inhibition at 10 uM after 48 hr by coulter counter analysis; conditions: SF-539, 48 h, read-out: GI
CAKI-1 = assay: Cytotoxicity against Homo sapiens (human) Caki1 cells assessed as growth inhibition at 10 uM after 48 hr by coulter counter analysis; conditions: CAKI-1, 48 h, read-out: GI
Hs-578T = assay: Cytotoxicity against Homo sapiens (human) Hs578T cells assessed as growth inhibition at 10 uM after 48 hr by coulter counter analysis; conditions: read-out: GI
PC-3 = assay: Cytotoxicity against Homo sapiens (human) PC3 cells assessed as growth inhibition at 10 uM after 48 hr by coulter counter analysis; conditions: PC-3, 48 h, read-out: GI
SK-OV-3 = assay: Cytotoxicity against Homo sapiens (human) SKOV3 cells assessed as growth inhibition at 10 uM after 48 hr by coulter counter analysis; conditions: SK-OV-3, 48 h, read-out: GI
SF-295 = assay: Cytotoxicity against Homo sapiens (human) SF295 cells assessed as growth inhibition at 10 uM after 48 hr by coulter counter analysis; conditions: SF-295, 48 h, read-out: GI
NCI-H226 = assay: Cytotoxicity against Homo sapiens (human) NCI-H226 cells assessed as growth inhibition at 10 uM after 48 hr by coulter counter analysis; conditions: NCI-H226, 48 h, read-out: GI
COLO 205 = assay: Cytotoxicity against Homo sapiens (human) COLO205 cells assessed as growth inhibition at 10 uM after 48 hr by coulter counter analysis; conditions: COLO 205, 48 h, read-out: GI
A498 = assay: Cytotoxicity against Homo sapiens (human) A498 cells assessed as growth inhibition at 10 uM after 48 hr by coulter counter analysis; conditions: A498, 48 h, read-out: GI
HCC 2998 = assay: Cytotoxicity against Homo sapiens (human) HCC2998 cells assessed as growth inhibition at 10 uM after 48 hr by coulter counter analysis; conditions: HCC 2998, 48 h, read-out: GI
CCRF-CEM = assay: Cytotoxicity against Homo sapiens (human) CCRF-CEM cells assessed as growth inhibition at 10 uM after 48 hr by coulter counter analysis; conditions: read-out: GI
UACC-257 = assay: Cytotoxicity against Homo sapiens (human) UACC257 cells assessed as growth inhibition at 10 uM after 48 hr by coulter counter analysis; conditions: UACC-257, 48 h, read-out: GI
OVCAR-5 = assay: Cytotoxicity against Homo sapiens (human) OVCAR5 cells assessed as growth inhibition at 10 uM after 48 hr by coulter counter analysis; conditions: OVCAR-5, 48 h, read-out: GI
HCT-15 = assay: Cytotoxicity against Homo sapiens (human) HCT15 cells assessed as growth inhibition at 10 uM after 48 hr by coulter counter analysis; conditions: HCT-15, 48 h, read-out: GI
Malme-3M = assay: Cytotoxicity against Homo sapiens (human) MALME-3M cells assessed as growth inhibition at 10 uM after 48 hr by coulter counter analysis; conditions: read-out: GI
SK-MEL-2 = assay: Cytotoxicity against Homo sapiens (human) SK-MEL-2 cells assessed as growth inhibition at 10 uM after 48 hr by coulter counter analysis; conditions: SK-MEL-2, 48 h, read-out: GI
HOP-92 = assay: Cytotoxicity against Homo sapiens (human) HOP92 cells assessed as growth inhibition at 10 uM after 48 hr by coulter counter analysis; conditions: HOP-92, 48 h, read-out: GI
LOX IMVI = assay: Cytotoxicity against Homo sapiens (human) LOXIMVI cells assessed as growth inhibition at 10 uM after 48 hr by coulter counter analysis; conditions: read-out: GI
EKVX = assay: Cytotoxicity against Homo sapiens (human) EKVX cells assessed as growth inhibition at 10 uM after 48 hr by coulter counter analysis; conditions: read-out: GI
HCT-116 = assay: Cytotoxicity against Homo sapiens (human) HCT116 cells assessed as growth inhibition at 10 uM after 48 hr by coulter counter analysis; conditions: HCT-116, 48 h, read-out: GI
[1] = Cytotoxicity against Homo sapiens (human) NCI-ADR-RES cells assessed as growth inhibition at 10 uM after 48 hr by coulter counter analysis; conditions: read-out: GI
OVCAR-8 = assay: Cytotoxicity against Homo sapiens (human) OVCAR8 cells assessed as growth inhibition at 10 uM after 48 hr by coulter counter analysis; conditions: OVCAR-8, 48 h, read-out: GI
OVCAR-4 = assay: Cytotoxicity against Homo sapiens (human) OVCAR4 cells assessed as growth inhibition at 10 uM after 48 hr by coulter counter analysis; conditions: OVCAR-4, 48 h, read-out: GI
K562 = assay: Cytotoxicity against Homo sapiens (human) K562 cells assessed as growth inhibition at 10 uM after 48 hr by coulter counter analysis; conditions: K562, 48 h, read-out: GI
MDA-MB-231 = assay: Cytotoxicity against Homo sapiens (human) MDA-MB-231 cells assessed as growth inhibition at 10 uM after 48 hr by coulter counter analysis; conditions: MDA-MB-231, 48 h, read-out: GI
RXF 393 = assay: Cytotoxicity against Homo sapiens (human) RXF393 cells assessed as growth inhibition at 10 uM after 48 hr by coulter counter analysis; conditions: RXF 393, 48 h, read-out: GI
MDA-MB-468 = assay: Cytotoxicity against Homo sapiens (human) MDA-MB-468 cells assessed as growth inhibition at 10 uM after 48 hr by coulter counter analysis; conditions: MDA-MB-468, 48 h, read-out: GI
SF-268 = assay: Cytotoxicity against Homo sapiens (human) SF268 cells assessed as growth inhibition at 10 uM after 48 hr by coulter counter analysis; conditions: SF-268, 48 h, read-out: GI
SK-MEL-5 = assay: Cytotoxicity against Homo sapiens (human) SK-MEL-5 cells assessed as growth inhibition at 10 uM after 48 hr by coulter counter analysis; conditions: SK-MEL-5, 48 h, read-out: GI
HT-29 = assay: Cytotoxicity against Homo sapiens (human) HT-29 cells assessed as growth inhibition at 10 uM after 48 hr by coulter counter analysis; conditions: HT-29, 48 h, read-out: GI
SN12C = assay: Cytotoxicity against Homo sapiens (human) SN12C cells assessed as growth inhibition at 10 uM after 48 hr by coulter counter analysis; conditions: read-out: GI
BT-549 = assay: Cytotoxicity against Homo sapiens (human) BT549 cells assessed as growth inhibition at 10 uM after 48 hr by coulter counter analysis; conditions: BT-549, 48 h, read-out: GI

COc1ccc(-c2nc3c(c(=O)[nH]2)C(c2ccc(OC)c(OC)c2)C2=C(CCCC2)N3)cc1OC (configuration not stated)
inhibition of growth at 10 µM (ACHN): 28.8% | inhibition of growth at 10 µM (HL-60(TB)): < 10% | inhibition of growth at 10 µM (SF-539): 14.5% | inhibition of growth at 10 µM (CAKI-1): 13.5% | inhibition of growth at 10 µM (Hs-578T): < 10% | inhibition of growth at 10 µM (PC-3): 17.1% | inhibition of growth at 10 µM (SK-OV-3): < 10% | inhibition of growth at 10 µM (SF-295): < 10% | inhibition of growth at 10 µM (NCI-H226): 13.3% | inhibition of growth at 10 µM (COLO 205): 10.3% | inhibition of growth at 10 µM (A498): < 10% | inhibition of growth at 10 µM (HCC 2998): < 10% | inhibition of growth at 10 µM (CCRF-CEM): 11.7% | inhibition of growth at 10 µM (UACC-257): < 10% | inhibition of growth at 10 µM (OVCAR-5): < 10% | inhibition of growth at 10 µM (HCT-15): 10.7% | inhibition of growth at 10 µM (Malme-3M): < 10% | inhibition of growth at 10 µM (SK-MEL-2): < 10% | inhibition of growth at 10 µM (HOP-92): 26.3% | inhibition of growth at 10 µM (LOX IMVI): 21.1% | inhibition of growth at 10 µM (EKVX): < 10% | inhibition of growth at 10 µM (HCT-116): < 10% | inhibition of growth at 10 µM [1]: < 10% | inhibition of growth at 10 µM (OVCAR-8): 12.1% | inhibition of growth at 10 µM (OVCAR-4): 10.8% | inhibition of growth at 10 µM (K562): < 10% | inhibition of growth at 10 µM (MDA-MB-231): < 10% | inhibition of growth at 10 µM (RXF 393): 10.3% | inhibition of growth at 10 µM (MDA-MB-468): 28.5% | inhibition of growth at 10 µM (SF-268): 12.2% | inhibition of growth at 10 µM (SK-MEL-5): 18.6% | inhibition of growth at 10 µM (HT-29): < 10% | inhibition of growth at 10 µM (SN12C): 15%

Oc1ccc(-c2nc3c4c(ncn3n2)NC2=C(CCCC2)C4c2ccc(Cl)cc2)cc1 (configuration not stated)
inhibition of growth at 10 µM (ACHN): < 10% | inhibition of growth at 10 µM (HL-60(TB)): 13.5% | inhibition of growth at 10 µM (SF-539): < 10% | inhibition of growth at 10 µM (CAKI-1): 24.6% | inhibition of growth at 10 µM (BT-549): < 10% | inhibition of growth at 10 µM (Hs-578T): 14.1% | inhibition of growth at 10 µM (PC-3): 10.4% | inhibition of growth at 10 µM (SK-OV-3): < 10% | inhibition of growth at 10 µM (SF-295): < 10% | inhibition of growth at 10 µM (NCI-H226): < 10% | inhibition of growth at 10 µM (COLO 205): < 10% | inhibition of growth at 10 µM (A498): 25.1% | inhibition of growth at 10 µM (HCC 2998): < 10% | inhibition of growth at 10 µM (CCRF-CEM): 13.2% | inhibition of growth at 10 µM (UACC-257): < 10% | inhibition of growth at 10 µM (OVCAR-5): < 10% | inhibition of growth at 10 µM (HCT-15): < 10% | inhibition of growth at 10 µM (Malme-3M): 13% | inhibition of growth at 10 µM (SK-MEL-2): < 10% | inhibition of growth at 10 µM (HOP-92): 42.1% | inhibition of growth at 10 µM (LOX IMVI): 14.3% | inhibition of growth at 10 µM (EKVX): < 10% | inhibition of growth at 10 µM (HCT-116): < 10% | inhibition of growth at 10 µM [1]: < 10% | inhibition of growth at 10 µM (OVCAR-8): < 10% | inhibition of growth at 10 µM (OVCAR-4): < 10% | inhibition of growth at 10 µM (K562): < 10% | inhibition of growth at 10 µM (MDA-MB-231): 20.5% | inhibition of growth at 10 µM (RXF 393): < 10% | inhibition of growth at 10 µM (MDA-MB-468): < 10% | inhibition of growth at 10 µM (SF-268): < 10% | inhibition of growth at 10 µM (SK-MEL-5): < 10% | inhibition of growth at 10 µM (HT-29): < 10% | inhibition of growth at 10 µM (SN12C): < 10%
